Experimental data as given in ChEMBL document CHEMBL1137797, “Differential inhibition of reverse transcriptase and various DNA polymerases by digallic acid and its derivatives” (J Nat Prod, 1990).
Activity calls are given as the source filed them. No cut-off for these calls is given here.

Columns and labels:
[1] = tested on: Human immunodeficiency virus; assay: Inhibition of HIV reverse transcriptase activity expressed in Escherichia coli
[2] = tested on: Rauscher murine leukemia virus; assay: Inhibition of Rauscher murine leukemia virus reverse transcriptase activity
[3] = tested on: Human immunodeficiency virus; assay: Inhibition of HIV reverse transcriptase expressed in Escherichia coli assessed as mixed-type inhibition using (rA)n.(dT)12-18 as primer by double reciprocal plot
[4] = tested on: Human immunodeficiency virus; assay: Inhibition of HIV reverse transcriptase expressed in Escherichia coli assessed as non-competitive inhibition using dTTP as primer by double reciprocal plot
[5] = Inhibition of HIV reverse transcriptase expressed in Escherichia coli by Dixon plot; set-up: species or system Human immunodeficiency virus
[6] = target: T1, DNA polymerase alpha catalytic subunit (Homo sapiens) (UniProt P09884); assay: Inhibition of DNA polymerase alpha from human KB3 cells assessed as non-competitive type inhibition using dNTP as substrate
T1 sequence (whole entry): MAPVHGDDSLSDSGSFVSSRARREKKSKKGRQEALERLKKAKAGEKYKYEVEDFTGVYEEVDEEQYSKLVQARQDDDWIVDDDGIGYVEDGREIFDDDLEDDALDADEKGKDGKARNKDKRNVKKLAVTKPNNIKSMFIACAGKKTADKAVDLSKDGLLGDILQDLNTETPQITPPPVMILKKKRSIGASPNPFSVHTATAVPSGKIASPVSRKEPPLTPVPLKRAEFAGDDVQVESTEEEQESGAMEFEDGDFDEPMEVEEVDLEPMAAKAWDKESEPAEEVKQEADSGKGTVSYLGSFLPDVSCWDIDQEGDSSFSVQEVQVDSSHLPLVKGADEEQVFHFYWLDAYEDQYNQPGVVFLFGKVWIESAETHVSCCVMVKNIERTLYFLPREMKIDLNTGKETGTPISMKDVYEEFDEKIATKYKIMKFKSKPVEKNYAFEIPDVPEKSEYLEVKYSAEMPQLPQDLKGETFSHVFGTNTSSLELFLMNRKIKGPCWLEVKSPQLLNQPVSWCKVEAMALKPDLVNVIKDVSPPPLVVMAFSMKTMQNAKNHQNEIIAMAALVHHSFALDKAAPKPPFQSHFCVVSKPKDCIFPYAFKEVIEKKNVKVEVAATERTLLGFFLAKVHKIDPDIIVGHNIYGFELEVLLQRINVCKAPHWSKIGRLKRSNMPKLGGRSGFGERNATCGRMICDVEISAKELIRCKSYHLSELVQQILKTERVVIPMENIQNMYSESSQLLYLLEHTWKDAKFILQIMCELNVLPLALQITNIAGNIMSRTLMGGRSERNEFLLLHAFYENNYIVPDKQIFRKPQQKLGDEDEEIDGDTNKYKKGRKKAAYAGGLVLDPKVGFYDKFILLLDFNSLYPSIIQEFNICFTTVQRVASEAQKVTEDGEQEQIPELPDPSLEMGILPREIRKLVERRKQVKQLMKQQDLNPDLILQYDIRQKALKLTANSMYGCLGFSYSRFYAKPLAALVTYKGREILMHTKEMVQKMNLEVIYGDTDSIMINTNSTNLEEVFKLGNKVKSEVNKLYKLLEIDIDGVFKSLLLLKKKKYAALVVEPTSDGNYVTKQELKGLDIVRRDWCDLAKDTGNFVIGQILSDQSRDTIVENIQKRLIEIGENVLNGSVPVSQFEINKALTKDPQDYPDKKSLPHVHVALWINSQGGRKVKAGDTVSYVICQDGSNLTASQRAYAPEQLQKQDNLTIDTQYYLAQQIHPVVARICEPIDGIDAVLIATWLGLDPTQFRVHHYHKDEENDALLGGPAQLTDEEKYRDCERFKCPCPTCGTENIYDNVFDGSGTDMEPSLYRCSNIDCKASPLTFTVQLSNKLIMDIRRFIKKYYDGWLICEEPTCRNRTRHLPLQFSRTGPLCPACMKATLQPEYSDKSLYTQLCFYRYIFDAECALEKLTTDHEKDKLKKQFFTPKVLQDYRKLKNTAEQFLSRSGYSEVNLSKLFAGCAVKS

[7] = target: DNA nucleotidylexotransferase (Bos taurus) (UniProt P06526); assay: Inhibition of terminal deoxynucleotidyltransferase from calf thymus up to 1 ug/ml
DNA polymerase beta [8] = target: T2, DNA polymerase beta (Homo sapiens, UniProt P06746); assay: Inhibition of DNA polymerase beta from human KB3 cells assessed as non-competitive type inhibition using dTTP as substrate
[9] = target: T1, DNA polymerase alpha catalytic subunit (Homo sapiens); assay: Inhibition of DNA polymerase alpha from human KB3 cells assessed as competitive type inhibition using activated DNA as substrate
[10] = tested on: Human immunodeficiency virus; assay: Inhibition of HIV reverse transcriptase expressed in Escherichia coli assessed as incorporation of [3H]dTMP at 0.2 ug/ml
[11] = target: T1, DNA polymerase alpha catalytic subunit (Homo sapiens); assay: Inhibition of DNA polymerase alpha from human KB3 cells at 1 ug/ml; format: cell-based
DNA polymerase beta [12] = target: T2, DNA polymerase beta; assay: Inhibition of DNA polymerase beta from human KB3 cells assessed as competitive type inhibition using (rA)n.(dT)12-18 as substrate
[13] = tested on: Rauscher murine leukemia virus; assay: Inhibition of Rauscher murine leukemia virus reverse transcriptase assessed as incorporation of [3H]dTMP at 0.2 ug/ml
[14] = target: DNA polymerase I (Escherichia coli) (UniProt P00582); assay: Inhibition of DNA polymerase-1 from Escherichia coli up to 1 ug/ml
[15] = target: T3, DNA polymerase alpha catalytic subunit (Homo sapiens, UniProt P09884); assay: Inhibition of DNA polymerase alpha from human KB3 cells; format: cell-based
T3 sequence (P09884 whole entry): T1 sequence (whole entry)

[16] = tested on: Human immunodeficiency virus; assay: Inhibition of HIV reverse transcriptase expressed in Escherichia coli assessed as incorporation of [3H]dTMP at 1 ug/ml
[17] = tested on: Rauscher murine leukemia virus; assay: Inhibition of Rauscher murine leukemia virus reverse transcriptase assessed as incorporation of [3H]dTMP at 1 ug/ml
DNA polymerase beta [18] = target: T2, DNA polymerase beta; assay: Inhibition of DNA polymerase beta from human KB3 cells; format: cell-based
KB3 = assay: Inhibition of DNA polymerase gamma from human KB3 cells up to 1 ug/ml; format: cell-based
[19] = tested on: Human immunodeficiency virus; assay: Inhibition of HIV reverse transcriptase expressed in Escherichia coli assessed as competitive inhibition using (rA)n.(dT)12-18 as primer by double reciprocal plot
[20] = tested on: Rauscher murine leukemia virus; assay: Inhibition of Rauscher murine leukemia virus reverse transcriptase assessed as incorporation of [3H]dTMP at 10 ug/ml
[21] = tested on: Human immunodeficiency virus; assay: Inhibition of HIV reverse transcriptase expressed in Escherichia coli assessed as incorporation of [3H]dTMP at 10 ug/ml

Chain of DNA polymerase I (Escherichia coli) (P00582 whole entry): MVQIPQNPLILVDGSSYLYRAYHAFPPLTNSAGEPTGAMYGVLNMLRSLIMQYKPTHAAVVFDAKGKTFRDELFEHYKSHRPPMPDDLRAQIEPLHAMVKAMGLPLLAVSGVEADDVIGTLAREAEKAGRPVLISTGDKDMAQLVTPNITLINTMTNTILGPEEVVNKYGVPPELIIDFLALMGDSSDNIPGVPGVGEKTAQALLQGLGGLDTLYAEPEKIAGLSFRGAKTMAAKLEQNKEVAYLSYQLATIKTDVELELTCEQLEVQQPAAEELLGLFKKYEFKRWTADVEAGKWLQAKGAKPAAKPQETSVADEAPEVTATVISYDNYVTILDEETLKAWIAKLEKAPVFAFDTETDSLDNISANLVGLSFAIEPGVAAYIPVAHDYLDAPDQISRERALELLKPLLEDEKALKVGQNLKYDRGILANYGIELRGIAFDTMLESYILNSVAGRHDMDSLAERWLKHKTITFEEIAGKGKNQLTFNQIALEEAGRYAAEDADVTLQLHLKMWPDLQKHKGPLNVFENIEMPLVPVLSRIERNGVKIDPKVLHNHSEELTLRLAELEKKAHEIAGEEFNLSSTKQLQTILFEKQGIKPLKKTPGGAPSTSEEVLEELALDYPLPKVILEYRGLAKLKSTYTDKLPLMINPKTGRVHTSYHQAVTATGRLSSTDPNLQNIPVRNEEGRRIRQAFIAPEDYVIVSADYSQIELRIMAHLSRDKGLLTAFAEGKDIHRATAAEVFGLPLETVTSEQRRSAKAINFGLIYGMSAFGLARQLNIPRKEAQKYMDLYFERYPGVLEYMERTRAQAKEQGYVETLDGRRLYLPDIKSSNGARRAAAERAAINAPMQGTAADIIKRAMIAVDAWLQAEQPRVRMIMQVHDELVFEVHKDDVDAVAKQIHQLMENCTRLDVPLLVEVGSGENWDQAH
Chain of DNA nucleotidylexotransferase (Bos taurus) (P06526 whole entry): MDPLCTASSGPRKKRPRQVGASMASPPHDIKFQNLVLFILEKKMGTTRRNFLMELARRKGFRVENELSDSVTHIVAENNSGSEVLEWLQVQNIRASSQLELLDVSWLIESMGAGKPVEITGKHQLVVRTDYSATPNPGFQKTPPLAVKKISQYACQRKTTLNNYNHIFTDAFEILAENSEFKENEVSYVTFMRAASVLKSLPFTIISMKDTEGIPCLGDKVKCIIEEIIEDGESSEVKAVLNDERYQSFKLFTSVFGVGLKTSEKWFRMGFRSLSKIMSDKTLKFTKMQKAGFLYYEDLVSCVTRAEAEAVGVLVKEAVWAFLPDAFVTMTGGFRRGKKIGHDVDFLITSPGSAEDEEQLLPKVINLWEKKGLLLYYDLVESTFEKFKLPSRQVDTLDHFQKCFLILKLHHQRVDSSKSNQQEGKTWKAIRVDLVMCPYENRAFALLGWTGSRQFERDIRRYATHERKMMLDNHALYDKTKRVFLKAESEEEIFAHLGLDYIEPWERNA

SMILES	Activity [1]	Activity [2]	Activity [4]	Ki [5]	other results
O=C(Oc1cc(O)cc(O)c1C(=O)O)c1ccc(O)c(O)c1	inactive	inactive	–	–	–
COCCOCCOCCOC(=O)c1cc(O)c(O)c(O)c1	inactive	inactive	–	–	–
COCCOCCOCCOC(=O)c1cc(O)c(O)c(OC(=O)c2ccc(O)c(O)c2O)c1	Active	Active	Active	390 nM	Activity [3]: Active
COCCOCCOc1c(C(=O)Oc2cc(C(=O)O)cc(O)c2O)ccc(O)c1O	inactive	inactive	–	–	–
COCCOCCOC(=O)c1cc(O)c(O)c(O)c1	inactive	inactive	–	–	–
O=C(O)c1cc(O)c(O)c(OC(=O)c2cc(O)c(O)c(O)c2)c1 [DIGALLIC ACID]	–	–	Active	580 nM	Activity [6]: Active; Activity [7]: inactive; Activity (DNA polymerase beta [8]): Active; Activity [3]: Active; Activity [9]: Active; inhibition [10]: 70%; inhibition [11]: > 90%; Activity (DNA polymerase beta [12]): Active; inhibition [13]: 70%; Activity [14]: inactive; Ki [15]: 830 nM; Activity [16]: Active; Activity [17]: Active; Ki (DNA polymerase beta [18]): 390 nM; Activity (KB3): inactive
COCCOCCOc1c(O)ccc(C(=O)Oc2cc(C(=O)O)cc(O)c2O)c1O	inactive	inactive	–	–	–
COCCOCCOC(=O)c1cc(O)c(O)c(OC(=O)c2ccc(O)c(O)c2O)c1	Active	Active	Active	120 nM	Activity [19]: Active
O=C(O)c1cc(O)c(O)c(O)c1	inactive	inactive	–	–	Activity [20]: inactive; Activity [21]: inactive
